Measured values from the supplement of paper PMC10307832.

What was measured:
Assay in all cases: relative viability (nuclei count vs DMSO), 5 days (fraction); higher = more cells survive
[1] = compound: C1CC(C1)(C(=O)O)C(=O)O.[NH2-].[NH2-].[Pt+2] [Carboplatin] + O=C(c1cc(Cc2n[nH]c(=O)c3ccccc23)ccc1F)N1CCN(C(=O)C2CC2)CC1 [Olaparib] (partner 8 µM)
How it was run: (§1)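 Lung cancer cell lines in 1536-well plates got either a single drug or a fixed anchor-drug dose together with five library-drug doses (not always all listed) in √10 steps, by pin tool, on the day after seeding. Nuclei were counted after 5 days, and relative viability is the treated-to-vehicle ratio of nuclei counts. Values are medians of duplicate plates.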

[2] = compound: C1CC(C1)(C(=O)O)C(=O)O.[NH2-].[NH2-].[Pt+2] [Carboplatin] + NC(=O)Nc1cc(-c2cccc(F)c2)sc1C(=O)N[C@H]1CCCNC1 [AZD7762] (partner 0.2 µM)
How it was run: as §1

[3] = compound: C1CC(C1)(C(=O)O)C(=O)O.[NH2-].[NH2-].[Pt+2] [Carboplatin] + O=C(CCCCCCC(=O)Nc1ccccc1)NO [Vorinostat] (partner 1 µM)
How it was run: as §1

[4] = compound: CC[C@H](C)N1C=C(C2=C(C=C(C=C21)C3=CN=C(C=C3)N4CCNCC4)C(=O)NCC5=C(C=C(NC5=O)C)C)C [GSK126] + O=C(CCCCCCC(=O)Nc1ccccc1)NO [Vorinostat] (partner 1 µM)
How it was run: as §1

Row | Cell Line | relative viability ([1]; first compound 0.08 µM) | relative viability ([1]; first compound 0.253 µM) | relative viability ([1]; first compound 0.8 µM) | relative viability ([1]; first compound 2.53 µM) | relative viability ([1]; first compound 8 µM) | relative viability ([2]; first compound 0.08 µM) | relative viability ([2]; first compound 0.253 µM) | relative viability ([2]; first compound 0.8 µM) | relative viability ([2]; first compound 2.53 µM) | relative viability ([2]; first compound 8 µM) | relative viability ([3]; first compound 0.08 µM) | relative viability ([3]; first compound 0.253 µM) | relative viability ([3]; first compound 0.8 µM) | relative viability ([3]; first compound 2.53 µM) | relative viability ([3]; first compound 8 µM) | relative viability ([4]; first compound 0.08 µM) | relative viability ([4]; first compound 0.253 µM) | relative viability ([4]; first compound 0.8 µM) | relative viability ([4]; first compound 2.53 µM) | relative viability ([4]; first compound 8 µM)
1 | A-427 | 0.733 | 0.695 | 0.88 | 0.648 | 0.712 | 0.75 | 0.759 | 0.778 | 0.762 | 0.795 | 0.865 | 0.854 | 0.864 | 0.864 | 0.829 | 0.863 | 0.833 | 0.865 | 0.958 | 0.896
2 | NCI-H661 | 0.73 | 0.794 | 0.675 | 0.737 | 0.729 |  |  |  |  |  | 0.82 | 0.785 | 0.733 | 0.777 | 0.622 | 0.779 | 0.746 | 0.734 | 0.716 | 0.69
3 | NCI-H1993 | 0.854 | 1.22 | 0.993 | 0.923 | 0.706 | 0.973 | 0.899 | 0.864 | 0.871 | 0.695 | 0.801 | 0.809 | 0.8 | 0.712 | 0.522 | 0.921 | 0.779 | 0.79 | 1.02 | 1.1
4 | NCI-H1944 | 0.388 | 0.469 | 0.369 | 0.367 | 0.366 | 0.616 | 0.5 | 0.584 | 0.559 | 0.354 | 0.533 | 0.61 | 0.59 | 0.523 | 0.368 | 0.656 | 0.524 | 0.601 | 0.566 | 0.594
5 | SK-LU-1 | 0.517 | 0.483 | 0.387 | 0.425 | 0.356 |  |  |  |  |  | 0.923 | 0.657 | 0.861 | 0.664 | 0.459 | 0.852 | 0.684 | 0.781 | 0.776 | 0.905
6 | NCI-H1915 | 0.253 | 0.257 | 0.225 | 0.22 | 0.21 | 0.64 | 0.706 | 0.679 | 0.647 | 0.39 | 0.508 | 0.506 | 0.513 | 0.48 | 0.299 | 0.602 | 0.474 | 0.542 | 0.5 | 0.54
7 | SW 1573 | 0.579 | 0.552 | 0.477 | 0.493 | 0.234 |  |  |  |  |  | 0.739 | 1.01 | 0.865 | 0.817 | 0.396 | 1.02 | 0.704 | 0.681 | 0.735 | 0.852
8 | COR-L23 | 0.329 | 0.3 | 0.301 | 0.246 | 0.157 |  |  |  |  |  | 0.588 | 0.446 | 0.36 | 0.262 | 0.149 | 0.56 | 0.42 | 0.461 | 0.453 | 0.407
9 | NCI-H2009 | 0.65 | 0.653 | 0.658 | 0.594 | 0.437 |  |  |  |  |  | 0.75 | 0.771 | 0.723 | 0.704 | 0.477 | 0.822 | 0.679 | 0.714 | 0.672 | 0.771
10 | NCI-H1703 | 0.646 | 0.329 | 0.453 | 0.608 | 0.325 | 0.144 | 0.13 | 0.101 |  | 0.122 |  |  |  |  |  |  |  |  |  | 
11 | NCI-H1792 | 0.72 | 0.548 | 0.412 | 0.289 | 0.265 | 0.924 | 0.669 | 0.606 | 0.457 | 0.352 |  |  |  |  |  |  |  |  |  | 
12 | IA-LM | 0.836 | 0.74 | 0.715 | 0.905 | 0.57 |  |  |  |  |  | 0.952 | 1.05 | 1.05 | 0.913 | 0.81 | 1.06 | 0.797 | 0.941 | 0.929 | 0.853
13 | NCI-H1650 | 0.85 | 0.815 | 0.752 | 0.492 | 0.471 |  |  |  |  |  | 0.64 | 0.584 | 0.599 | 0.459 | 0.271 | 0.678 | 0.546 | 0.605 | 0.431 | 0.681
14 | A549 | 0.332 | 0.388 | 0.314 | 0.329 | 0.174 |  |  |  |  |  |  |  |  |  |  |  |  |  |  | 
15 | NCI-H1299 | 0.967 | 0.969 | 0.96 | 0.947 | 0.826 |  |  |  |  |  |  |  |  |  |  |  |  |  |  | 
16 | NCI-H2023 | 0.473 | 0.445 | 0.415 | 0.231 | 0.135 |  |  |  |  |  | 0.628 | 0.733 | 0.434 | 0.299 | 0.11 | 0.962 | 0.804 | 0.533 | 0.709 | 0.712
17 | EBC-1 | 0.775 | 0.694 | 0.725 | 0.624 | 0.567 |  |  |  |  |  |  |  |  |  |  |  |  |  |  | 
18 | Calu-6 | 0.582 | 0.552 | 0.541 | 0.475 | 0.298 |  |  |  |  |  |  |  |  |  |  |  |  |  |  | 
19 | NCI-H520 | 0.408 | 0.253 | 0.328 | 0.313 | 0.287 |  |  |  |  |  | 0.668 | 0.745 | 0.837 | 0.775 | 0.395 | 0.761 | 0.739 | 0.656 | 0.745 | 0.87
